Patent publication US20090220534A1, “METHODS FOR IDENTIFYING T-CELL EPITOPES ASSOCIATED WITH IMPAIRED PEPTIDE PROCESSING AND APPLICATIONS OF THE IDENTIFIED EPITOPES” (Leiden University Medical Center, priority 2006, published 2009)

Legend:
[1] = system: RMA, 786 and RMA-S tumor cells; experiment: IFNγ pre-treatment of tumor cells, recognition by CTL; type: cell-based, mouse
Procedure: (a) TEIPP-specific CTL were incubated with a panel of TAP-expressing syngeneic tumor cells (see Materials and Methods for descriptions of tumor cell lines). CTL response against TAP-deficient RMA-S in this experiment was 44 ng/ml. (b) Pre-treatment of TAP-expressing T-cell lymphoma (RMA) and B-cell lymphoma (786) cells with IFNγ reduced the reactivity of TEIPP-specific CTL, as measured after 6 h. […] Panels depict means of triplicate wells and one of three experiments is shown. (c-e) TAP-expressing RMA tumor cells were treated with the proteasome inhibitor lactacystin and used as targets for cytolysis by two independent TEIPP-specific CTL (c and d) or control RMA-specific CTL (e). […] One representative experiment of three is shown. […] (f-g) TAP-expressing colon carcinoma MC38 (f) and melanoma B16 (g) were loaded with oligo DNA coding a partial antisense sequence of TAP1. Recognition by TEIPP-specific CTL was measured by IFNγ release. […] (h) Tapasin−/− LPS B cell blasts are recognized by TEIPP-specific CTL in a CD8-dependent manner. Spleens of TAP1−/−, Tapasin−/− or wild type B6 mice were cultured with LPS and used as targets for TEIPP-specific CTL.
Thus far, only cells of hematopoietic origin had been tested against TEIPP-specific CTL. […] Likewise, TEIPP-specific CTL recognized immortalized mouse embryo fibroblasts from TAP1−/− origin (FIG. 2c). […] For instance, RMA, the TAP-expressing counterpart of RMA-S against which these T cells were raised, was also recognized by TEIPP-directed CTL, albeit to lower extent (FIG. 3a). Furthermore, the TEIPP-specific CTL recognized two independent TAP-expressing murine leukemia virus-induced B cell lymphomas (FIG. 3a, lines 771 and 786) and, of the tumor targets of non-hematopoietic origin, HPV type 16-transformed fibroblasts (FIG. 3a, line TC1). All these tumor cells expressed TAP, as illustrated by the fact that they serve as proper targets for control CTL that react against defined, TAP-dependent epitopes 15, 16. We therefore considered the possibility that partial deficiencies in MHC class I antigen processing may account for the recognition of several TAP-expressing murine tumor cells by TEIPP-specific CTL. Such partial defects are commonly found in human cancers 5. We examined this idea by treatment of RMA cells with IFNγ, which is known to enhance MHC class I antigen processing at multiple levels, including the transcription of TAP 17. […] In contrast, recognition by RMA-specific control CTL was increased (data not shown).
(§1) Cytolytic activity of CTL was measured by chromium (^51Cr) release assay, as described before (16). CTL reactivity was also measured by IFNγ release. […] IFNγ content of supernatants was measured by sandwich ELISA technique (at OD 415) as described (47). […]

[2] = system: TAP-deficient RMA-S lymphoma cells; experiment: Peptide immunization and challenge with RMA-S tumor cells; type: in vivo; settings: with T helper peptide and CpG oligonucleotides, B6 mice
Text: Groups of B6 mice (n=10) were immunized with synthetic peptides comprising TEIPP Db peptide MCLRMTAVM or control Db peptide SSPVNSLRNVV51 combined with T helper peptide EPLTSLTPRCNTAWNRLKL29 and CpG oligonucleotides 28 and challenged with TAP-deficient RMA-S lymphoma cells. Mice were challenged at day 0 and immunized at days −14, 7 and 14. Immunization with irradiated RMA-S.B7 cells served as positive control.
We therefore immunized groups of mice with the newly identified Db-restricted TEIPP CTL epitope, or a control CTL epitope, in combination with a previously identified tumor-specific CD4+ T-helper epitope (29), and challenged the mice with a tumorigenic dose of RMA-S cells.
B6 mice were immunized with synthetic peptides by s.c. injections of 100 μg of peptide, 50 μg T-helper peptide EPLTSLTPRCNTAWNRLKL 29 and 40 μg Toll-Like Receptor 9 ligand CpG oligonucleotides 28 per mouse in a total volume of 200 μl PBS. Mice were challenged s.c. at the opposite flank with 8×10^5 RMA-S cells in PBS.

Db-restricted TEIPP CTL = experiment: Peptide recognition by Db-restricted TEIPP CTL (IFNγ release); type: cell-based, mouse; settings: synthetic peptide in titrating amounts
Text: Kb-restricted (a) and Db-restricted TEIPP-CTL (b) respond to human TAP-deficient T2 cells with stable expression of Kb or Db when exogenously loaded with synthetic peptide libraries. Libraries contained peptides with Kb- or Db-binding motifs, Kb lib: xxxxFxxI/L/M (complexity of approximately 108) and Db lib: xxxxNxxxI/L/M (complexity of approximately 109), where x is random for all amino acids. (c-d) Db molecules from RMA-S cells (1011) were immunoaffinity purified and acid eluted peptides were separated by reversed phase HPLC, applying an increasing acetonitril gradient (OD214 left axis, % acetonitril right axis) (c). HPLC fractions were loaded unto T2.Db cells and TEIPP-specific, Db-restricted CTL were applied to detect the eluted peptide-epitope (d). […] Of note, CTL recognition of HPLC fractions depended on the presence of the relevant class I molecule on target cells (not shown). (e) MCLRMTAVM peptide is processed and presented from the Trh4 gene. The Trh4 gene was cloned from RMA-S cells using gene-specific primers. Trh4 gene in the reversed orientation (Trh4r) served as control plasmid. […]
as §1

[3] = system: TAP-expressing RMA tumor cells; experiment: Proteasome inhibitor treatment of target cells, cytolysis by CTL (chromium release); type: cell-based, mouse; settings: RMA cells treated with proteasome inhibitor
Procedure: (§2) (a) TEIPP-specific CTL were incubated with a panel of TAP-expressing syngeneic tumor cells (see Materials and Methods for descriptions of tumor cell lines). CTL response against TAP-deficient RMA-S in this experiment was 44 ng/ml. (b) Pre-treatment of TAP-expressing T-cell lymphoma (RMA) and B-cell lymphoma (786) cells with IFNγ reduced the reactivity of TEIPP-specific CTL, as measured after 6 h. […] Panels depict means of triplicate wells and one of three experiments is shown. (c-e) TAP-expressing RMA tumor cells were treated with the proteasome inhibitor lactacystin and used as targets for cytolysis by two independent TEIPP-specific CTL (c and d) or control RMA-specific CTL (e). […] One representative experiment of three is shown. […] (f-g) TAP-expressing colon carcinoma MC38 (f) and melanoma B16 (g) were loaded with oligo DNA coding a partial antisense sequence of TAP1. Recognition by TEIPP-specific CTL was measured by IFNγ release. […]
(§3) In order to make an inventory of the deficiencies that can result in TEIPP expression, we assessed the effect of several targeted interventions in the MHC class I processing pathway. […]
as §1

[4] = system: MC38 colon carcinoma cells and B16 melanoma cells; experiment: TAP1 antisense oligonucleotide treatment of tumor cells, recognition by TEIPP-specific CTL (IFNγ release); type: cell-based, mouse
Procedure: as §2, §3, §1

IFNγ: interferon gamma used to pre-treat tumor cells
recognition of pretreated cells by TEIPP-specific CTL ([1]; RMA cells): reduced recognition of these cells by TEIPP-specific CTL
recognition of pretreated cells by RMA-specific control CTL ([1]; RMA cells, data not shown): increased
MHC class I surface expression ([1]; RMA cells, not shown): increased three-fold
recognition of pretreated cells by CTL ([1]; RMA-S cells, data not shown): did not result in an increased recognition

control peptide: control Db peptide SSPVNSLRNVV used for immunization
tumor protection after immunization [2]: developed progressively growing tumors

MCLRMTAVM
tumor protection after immunization [2]: tumor protection in the majority of mice
recognition by Db-restricted TEIPP CTL (Db-restricted TEIPP CTL): efficiently recognized by the Db-restricted TEIPP CTL, at much lower concentration than the mimotope peptide

CC(=O)N[C@@H](CSC(=O)[C@]1([C@@H](O)C(C)C)NC(=O)[C@H](C)[C@@H]1O)C(=O)O [lactacystin]
recognition of treated RMA cells by control CTL [3]: decreased
sensitivity of treated RMA cells to lysis by TEIPP-specific CTL [3]: increased their sensitivity to lysis by these CTL

TAP1-specific anti-sense oligonucleotides: 'morpholino' oligonucleotides encoding the antisense sequence of mouse TAP1 (5′-AGAGTCTGGTCCTAGCCTGGGA-3′) (all phosphorodiamidate morpholino (PMO))
recognition of treated cells by TEIPP-specific CTL [4]: increased recognition by TEIPP-specific CTL
